Experimental data published in article PMC7916522, “In Vitro and In Vivo Anti-Candida Activity and Structural Analysis of Killer Peptide (KP)-Derivatives” (Journal of Fungi, 2021).
Peptide text beside a SMILES is read from it.

Legend:
Candida albicans SC5314 = assay: CFU assay, neutralization of candidacidal activity by laminarin; assay type: cell-based; details: peptide at its minimal candidacidal concentration
Protocol: The candidacidal activity of KP-derivatives, in comparison to KP, was evaluated by a previously described colony forming unit (CFU) assay against the reference C. albicans strain SC5314 [25]. Briefly, approximately 500 yeast cells were incubated at 37 °C for 6 h in 100 µL of distilled water in the presence or absence (control growth) of the synthetic peptides at serial dilutions. After spreading on Sabouraud Dextrose agar (SDA) plates and incubation for 48–72 h at 30 °C, CFUs were counted. Peptide fungicidal activity was determined as percentage of CFU inhibition, according to the formula 100-(CFUs peptide treated/CFUs control growth) × 100. Each assay was carried out in triplicate and at least two independent experiments were performed for each condition. Half maximal effective concentration (EC50) was calculated by nonlinear regression analysis using GraphPad Prism 5 software (San Diego, CA, USA). CFU assays were also performed in order to verify if laminarin (100 or 200 µg/mL), a soluble β-1,3-glucan, could neutralize the candidacidal activity of KP-derivatives at their minimum fungicidal concentration [25].

LLC-MK2 cells = details: 24 h incubation, resazurin assay; for Cell viability (%) 10 µM: peptide 10 µM; for Cell viability (%) 25 µM: peptide 25 µM; for Cell viability (%) 50 µM: peptide 50 µM
Protocol: (§1) A stock solution of peptides (20 mg/mL) was prepared in dimethyl sulfoxide (DMSO), then proper dilutions were made for evaluation of biological activities. DMSO at proper concentration was present in controls (without peptides). All the peptides were evaluated for their hemolytic activity against freshly collected human red blood cells, while cytotoxicity against monkey kidney epithelial cells LLC-MK2 was determined by resazurin assay, as previously described.

human red blood cells = details: peptide 25 µM
Protocol: as §1

Compound	C. albicans Growth Inhibition (%) in the Presence of Laminarin 100 µg/mL (Candida albicans SC5314) [%]	C. albicans Growth Inhibition (%) in the Presence of Laminarin 200 µg/mL (Candida albicans SC5314) [%]	Cell viability (%) 10 µM (LLC-MK2 cells) [%]	Cell viability (%) 25 µM (LLC-MK2 cells) [%]	Cell viability (%) 50 µM (LLC-MK2 cells) [%]	hemolysis after 120 min (human red blood cells; 120 min incubation) [%]	hemolysis after 30 min (human red blood cells; 30 min incubation) [%]
CSCC[C@H](NC(=O)[C@@H](NC(=O)[C@@H](NC(=O)[C@@H](N)CCCCN)C(C)C)[C@@H](C)O)C(=O)N[C@H](C(=O)N[C@@H](CS)C(=O)N[C@@H](CO)C(=O)N[C@@H](C)C(=O)N[C@@H](CO)C(=O)O)[C@@H](C)O [Peptide K9S] (H-KVTMTCSAS-OH)	31.09 ± 1.71	0.68 ± 0.97	100	98.55	95.86	–	–
CSCC[C@H](NC(=O)[C@@H](NC(=O)[C@@H](NC(=O)[C@H](CCCCN)NC(=O)[C@@H](N)Cc1ccc(O)cc1)C(C)C)[C@@H](C)O)C(=O)N[C@H](C(=O)N[C@@H](CS)C(=O)N[C@@H](CO)C(=O)N[C@@H](C)C(=O)N[C@@H](CO)C(=O)O)[C@@H](C)O [Peptide Y10S] (H-YKVTMTCSAS-OH)	5.57 ± 4.84	–	96.89	95.35	97.18	–	–
CSCC[C@H](NC(=O)[C@@H](NC(=O)[C@@H](NC(=O)[C@H](CCCCN)NC(=O)[C@@H]1CCCN1)C(C)C)[C@@H](C)O)C(=O)N[C@H](C(=O)N[C@@H](CS)C(=O)N[C@@H](CO)C(=O)N[C@@H](C)C(=O)N[C@@H](CO)C(=O)O)[C@@H](C)O [Peptide P10S] (H-PKVTMTCSAS-OH)	97.71 ± 0.46	3.10 ± 4.38	93.25	90.20	89.77	–	–
CSCC[C@H](NC(=O)[C@@H](NC(=O)[C@@H](NC(=O)[C@H](CCCCN)NC(=O)[C@@H](N)CO)C(C)C)[C@@H](C)O)C(=O)N[C@H](C(=O)N[C@@H](CS)C(=O)N[C@@H](CO)C(=O)N[C@@H](C)C(=O)N[C@@H](CO)C(=O)O)[C@@H](C)O [Peptide S10S] (H-SKVTMTCSAS-OH)	99.12 ± 0.50	60.73 ± 13.13	99.77	99.75	91.09	–	–
CSCC[C@H](NC(=O)[C@@H](NC(=O)[C@@H](NC(=O)[C@H](CCCCN)NC(=O)[C@@H](N)Cc1c[nH]cn1)C(C)C)[C@@H](C)O)C(=O)N[C@H](C(=O)N[C@@H](CS)C(=O)N[C@@H](CO)C(=O)N[C@@H](C)C(=O)N[C@@H](CO)C(=O)O)[C@@H](C)O [Peptide H10S] (H-HKVTMTCSAS-OH)	6.20 ± 3.71	–	96.77	94.90	90.99	–	–
CSCC[C@H](NC(=O)[C@@H](NC(=O)[C@@H](NC(=O)[C@H](CCCCN)NC(=O)[C@@H](N)CCCCN)C(C)C)[C@@H](C)O)C(=O)N[C@H](C(=O)N[C@@H](CS)C(=O)N[C@@H](CO)C(=O)N[C@@H](C)C(=O)N[C@@H](CO)C(=O)O)[C@@H](C)O [Peptide K10S] (H-KKVTMTCSAS-OH)	1.07 ± 0.39	–	93.74	100	90.95	2.42	–
CSCC[C@H](NC(=O)[C@@H](NC(=O)[C@@H](NC(=O)[C@H](CCCCN)NC(=O)[C@H](C)N)C(C)C)[C@@H](C)O)C(=O)N[C@H](C(=O)N[C@@H](CS)C(=O)N[C@@H](CO)C(=O)N[C@@H](C)C(=O)N[C@@H](CO)C(=O)O)[C@@H](C)O [A10S (KP)] (H-AKVTMTCSAS-OH)	96.39 ± 1.68	1.80 ± 0.49	93.59	88.20	89.71	–	1.13
CSCC[C@H](NC(=O)[C@@H](NC(=O)[C@@H](NC(=O)[C@H](CCCCN)NC(=O)[C@@H](N)CC(C)C)C(C)C)[C@@H](C)O)C(=O)N[C@H](C(=O)N[C@@H](CS)C(=O)N[C@@H](CO)C(=O)N[C@@H](C)C(=O)N[C@@H](CO)C(=O)O)[C@@H](C)O [Peptide L10S] (H-LKVTMTCSAS-OH)	0	–	95.70	93.44	98.07	–	–
